Source: a melting point compilation (Tetko et al.; mined from patent text by program, amines drawn as free bases though some values may be those of a salt)

Compound | melting point [°C]
Cc1ccc2[nH]cc(C3=C(c4c[nH]c5ccc(C)cc45)C(=O)N(C)C3=O)c2c1 | 270 to 275
C=C1CSC(=C(C#N)n2ccnc2)S1 | 116
CC(N)c1ccc2c(c1)N(C(=O)OC(C)(C)C)CCC2 (stereo not drawn) | 61 to 64
COC(=O)COc1ccc(C=O)cc1OC | 91 to 93
CSc1cn(C)c2cc(Cl)sc2c1=O | 231 to 234
O=C(NCCN1CCOCC1)c1ccc2nonc2c1 | 145 to 148
COc1c(C2CCN(CCCCNC(=O)c3sc(-c4ccc(C#N)cc4)nc3CO)CC2)ccc2c1CCCC2 | 212
CNCC(O)c1cccn1C (stereo not drawn) | 64 to 66
O=C(c1sc(Nc2ccccc2)c2c1CCc1cnoc1-2)N1CCOCC1 | 177 to 178
CC1(C)C2CCC1(CCBr)CC2 | 68 to 71
CN(C)CCNC1=CC(=O)c2nc(-c3ccc(F)cc3)sc2C1=O | 246 to 247
Cn1nc(CO)cc1OCCCN1CCN(c2cccc3sccc23)CC1 | 124 to 126
C[C@@H](CN1CCc2ccc3c(c21)CCO3)NC(=O)OC(C)(C)C | 141 to 142
NC(=O)c1cnn2cccc2c1NC1CCC(O)CC1 (stereo not drawn) | 192
CCCC=Cc1c(C(C)C)nc(C(C)C)c(CO)c1-c1ccc(S(C)=O)cc1 (stereo not drawn) | 133 to 135
O=S(=O)(OS(=O)(=O)C1CCCCC1)C1CCCCC1 | 97 to 100
CN1C(=O)C2=C(c3ccc(Br)cc3)N(c3ccccc3)C(=O)C2=C1c1ccccc1 | 255 to 256
Cn1c(C#N)ccc1CC(=O)O | 125 to 126
C=C1CC(COc2cc(=O)oc3ccccc23)(c2ccccc2)OC1=O (stereo not drawn) | 212 to 214
CCn1cc(C(=O)O)c(=O)c2c(F)c(F)c(N3CCOCC3)c(F)c21 | 281 to 283
CCOC(=O)C1CCCCC1Nc1cn[nH]c1 (stereo not drawn) | 92 to 94
CNC(=S)N1CCSC1c1ccccc1OCCN1CCC(c2ccccc2)CC1 (stereo not drawn) | 141 to 142
CNC(=O)N(C)c1cc(C)on1 | 77 to 78
CCOP(=S)(NCc1cccc(-c2nc(=O)c3ccccc3s2)n1)OCC | 132 to 133

Compound | melting point [°C]
N#CC=Cc1ccc(Cc2ncc[nH]2)cc1 | 118 to 120
CC(C)S(=O)(=O)Oc1cn(C)c2cc(F)ccc2c1=O | 130 to 133
Cc1cc(C(=O)N2CCCC2)ccc1Br | 55 to 57
Cc1cc2c(cc1C)C(C)(C)N(Cc1ccccc1)C2(C)C | 98 to 100
CCCOc1cc(N(CC)CC)ccc1-c1nc2cc3c(cc2[nH]1)C(C)(C)CC(=O)N3 | 147 to 148
CCOC(=O)c1ncn2c1c(=O)n(CC)c1ncccc12 | 216 to 217
C=CCN1Cc2nc3c(cnn3CCCC#CC)c(N)c2C1=O | 138 to 140
CC1Oc2c(cc(CN3CCN(c4ccc(C(=O)NC5CC5)cc4)CC3)cc2C2CC2)NC1=O (stereo not drawn) | 202 to 207
COc1ccc(CCCO)cc1OCc1coc(/C=C/c2ccccc2)n1 | 126 to 128
OC[C@@H]1CC[C@H]2CN(c3ncc(F)cn3)CCN2C1 | 148 to 150
CN(C)CCN(C)C(=O)Oc1ccc(Cl)cc1Cn1nc(-c2ccc(C(F)(F)F)cc2)oc1=O | 127 to 129
Clc1c(-c2cnco2)[nH]c2ccccc12 | 131 to 134
O=C(CBr)c1cccc2nnsc12 | 155 to 157
CCc1cc(C#N)c(=O)[nH]c1C | 237 to 240
COc1cc(C(C)=O)ccc1OCCCCN1CCC(c2n[nH]c3cc(F)ccc23)CC1 | 158 to 160
Cc1ccc(-c2nn(C(C)(C)C)c(N)c2C#N)cc1 | 174 to 176
CCNC(c1ccccc1)(c1ccccc1)c1ccccc1 | 75 to 77
Cn1cc(C(=O)O)c(=O)c2cc3cc(F)c(N4CCNC(c5ccccc5)C4)c(F)c3nc21 (racemic) | 298
CCC1(C)CC(=O)C(C(=O)Nc2cc(C(F)(F)F)cc(C(F)(F)F)c2)C(=O)C1 (stereo not drawn) | 72 to 73
CC(C)OC(=O)N1CCC(NC(=O)N2CCn3c(c(C(N)=O)c(C#N)c3C3CC3)C2)CC1 | 181 to 182
COc1cc2c(c(OC)c1OC)-c1ccc(SC)c(=O)cc1C(N)CC2 (stereo not drawn) | 168 to 170
CCCCc1nc2c(N)nc3cccnc3c2n1CCNC(=O)C(CC(C)C)NC(=O)OC(C)(C)C (stereo not drawn) | 184 to 185
CC1CC(C)CN(S(=O)(=O)c2cc(Cl)cc(C(=O)O)c2)C1 (stereo not drawn) | 226 to 231

Other lines, results leading:

melting point [°C] | Compound
153 to 157 | O=C(Nc1ccc(Cl)c(C(F)(F)F)c1)Nc1ccccc1P(=O)(O)O
240 | CC(C(=O)O)c1ccc2nc3ccc(S(C)(=O)=O)cn3c(=O)c2c1 (stereo not drawn)
192 to 196 | CC(S)C(Cc1ccccc1)C(=O)Nc1cccc(C(=O)O)c1 (stereo not drawn)
129 to 132 | CCCCc1nc(Cl)c(C(=O)O)n1Cc1ccc2oc(-c3ccccc3-c3nnn[nH]3)c(C(C)(C)C)c2c1
187 to 189 | CN(C)C1CCCN(C(=O)c2ccc(NC(=O)Cc3ccccc3Cl)cc2)c2ccccc21 (stereo not drawn)
129 to 130 | CCNC=C(C(=O)C=Cc1ccc(N(C)C)cc1)C(=O)OC
222 to 224 | COc1cc(OC)c(-c2nc3cccnc3[nH]2)cc1C=CC(=O)c1ccc(C(=O)O)cc1
90 to 92 | Cn1nc(-c2ccccc2C(F)(F)F)nc1-c1ccccc1Cl
228 to 229 | Cn1c(=O)oc2cc3c(cc21)OCC31C(=O)N(C(c2ccccc2)c2ccccc2)c2ccccc21 (stereo not drawn)
126 to 127 | COC(=O)c1cnn2c(C(F)(F)F)cc(Cl)nc12
105 to 108 | Cc1cc(C(=O)c2ccc(Cl)cc2)ccc1[N+](=O)[O-]
82 | CCCCc1nc(C(=O)O)c(Sc2ccc(OC)cc2)n1Cc1cc2c(cc1Cl)OCO2
260 to 262 | CS(=O)(=O)c1ccc(CC(=O)c2c(O)c3cccnc3n(-c3ccccc3)c2=O)cc1
233 to 234 | O=C(Nc1ccc(F)cc1F)c1cc(-c2ccc(F)cc2F)ccc1O
123 to 130 | O=c1cc(-c2ccccc2)oc2cc(OCC3CO3)ccc12 (stereo not drawn)
250 to 252 | CC(=O)c1ccc(-n2c(-c3sc(NC(=O)c4ccccc4)nc3-c3ccccc3)nc3ccccc3c2=O)cc1
213 to 214 | Cc1cc(-c2nc3cccnn3c2-c2ccnc(NC(=O)NCC(C)C)c2)ccc1F
202 | CC(C)(C)OC(=O)[C@H]1C[C@@H](S(=O)(=O)c2ccccc2F)[C@@H](c2ccccc2F)N1 (racemic)
110 to 112 | C=CC(O)(c1cccnc1)C(O)c1ccccc1Cl (stereo not drawn)
205 | COc1ccc(C(Nc2ccc(C(=N)NO)cc2)C(=O)O)c(OCCO)c1 (racemic)
116 to 117 | O=S(CCCCCl)Cc1ccc(-c2ccccc2)cc1 (stereo not drawn)
185 to 186 | CN(C)C1CCN(C(=O)c2ccc(-c3[nH]nc4c3C(=O)c3c(NC(=O)NN5CCOCC5)cccc3-4)s2)CC1
155 to 158 | N#Cc1ccc(-c2ccc(OS(N)(=O)=O)c(Cl)c2)cc1Cn1cncn1
202 to 205 | CCN(CC)Cc1cc(/C=C/C(=O)Nc2ccccc2C(=O)O)ccc1OC
297 to 300 | O=c1[nH]c(=O)n2c3c1cnn3C(c1cccc(C(F)(F)F)c1)CC2 (stereo not drawn)
227 to 228 | Nc1cc(Cc2n[nH]c(=O)c3ccccc23)ccc1Cl

melting point [°C] | Compound
56 to 58 | C#CCOc1nc(N)c(C(F)(F)F)cc1Cl
104 to 105 | CC(C)Oc1cc(CCC(=O)NS(C)(=O)=O)n(Cc2ccc(Cl)cc2Cl)n1
173 | CCOc1ccc2c(c1)N=C(c1cccc(-c3ccc(C)nc3)c1)CC(=O)N2
117 to 118 | O=C(Nc1ccc(F)nc1)c1cccc(-c2cccc3oc(Cc4cccc(C(F)(F)F)c4)cc23)c1
186 to 187 | CN(C(=O)c1ccc(-c2ccccc2)cc1)C1N(C)C(c2ccc(F)cc2)=NC1(C(F)(F)F)C(F)(F)F (stereo not drawn)
106 to 109 | O=C(CN1C(=O)CC1S(=O)(=O)c1ccccc1)NCCCCCCc1ccc(Cl)cc1 (single isomer, unassigned; (-))
187 to 189 | O=C1C(Cc2ccccc2)NC(=S)N1c1ccccc1 (stereo not drawn)
111 to 112 | CC(C)COC(=O)Oc1ccc(S(=O)(=O)c2ccc(S(N)(=O)=O)s2)cc1
206 to 208 | CC(C)c1cccc(C(C)C)c1NC(=O)Nc1ccc(-c2ccccc2)nc1-c1ccccc1
125 to 126 | CON=C(c1noc(C)n1)c1ccccc1COc1ccc(Cl)cc1
202 | O=C(c1ccc(I)cc1)c1cc2c3c(c1)c(-c1cccc(Cl)c1)cc(=O)n3CC2
77 | Cc1ccc(S(=O)(=O)N2[C@H](CCCCc3nnnn3C)CC[C@@H]2c2ccc(F)cc2)cc1 (racemic)
278 to 282 | NC(=O)c1cc(Cl)ccc1SSc1ccc(Cl)cc1C(N)=O
46 | COCCOCOc1ccc(C(=O)c2nc3ccc(OCOCCOC)cc3s2)cc1
211 to 213 | O=C(NC(=O)c1c(Cl)cccc1Cl)Nc1ccc(OC(F)(F)C(Cl)Cl)cc1
63 to 64 | COc1ccc2cc(C(C)C(=O)OCc3ccc(OC(=O)OCCC(C)(C)C)cc3)ccc2c1 (stereo not drawn)
146 to 147 | CCCCN(Cc1ccc(-c2ccccc2-c2nc(=O)o[nH]2)cc1)c1ncccc1C(=O)OCC
> 300 | CCC(CC)c1ccc(Cl)c2nc3n(c12)CCN3c1ccc(Cl)cc1C(N)=O
219 to 221 | O=C(NN1CCCCC1)c1cn(-c2ccc(Br)cc2)c(-c2ccc(Cl)cc2Cl)n1
164 to 166 | CC(O)(C(=O)Nc1ccc(S(=O)(=O)N2CCCCC2)cc1)C(F)(F)F (stereo not drawn)
213 to 214 | Cc1ccc(C(=O)Nc2c(NC(=O)CN3CCCCC3)ccc3c2C(=O)c2ccccc2C3=O)cc1
139 to 141 | CCOC(=O)C(=O)c1cn(CC)c2cc(-c3ccc(C(F)(F)F)cc3)ccc12
59 to 61 | COC(CC(=O)c1ccccc1)c1ccc(Cl)cc1F (stereo not drawn)
255 to 262 | Cc1ccc(O)c2c1C(=O)C(=O)N2Cc1ccccc1
110 to 113 | O=C(c1ccc(Cl)cc1)N1N=C(C(F)(F)F)CC1(O)c1cc(F)ccc1F (stereo not drawn)
